Assay results from patent US20100168218A1 (priority 2005, published 2010).
Like-named read-outs stand apart in the source and are kept apart here. One block for each compound: values may come before it.

Key:
[1] = system: FAO in the ventrolateral hypothalamus (VLH); settings: cited from earlier work
[2] = systemic FAO inhibition, rodents; cited from earlier work
[3] = Weight loss, food intake and indirect calorimetry in lean female Balb/C mice, 60 mg/kg; type: in vivo; settings: for Metabolic Mechanism (indirect calorimetry): RER / Metabolic Mechanism (indirect calorimetry): VO2: compared to pair-fed animals; for % Maximum Reduction in Food Intake: day 1; for % Maximum Reduction in Food Intake / % Max. Wt Loss: 60 mg/kg
Protocol: Compounds 4 and 5 were administered to pair-fed mice, and various biological properties were tested for. The results are summarized below:
(§1) In contrast, it stimulated FAO by 150% of control at 8.4 μg/ml (28 μM) and CPT-1 activity by 150% of control at 20 μg/ml (˜60 μM). In lean female Balb/C mice, a single ip dose of 60 mg/kg caused nearly 8% weight loss within 24 hours along with a 68% reduction in food intake. […] Compound 5, with a different chemical structure, has similar biological characteristics to Compound 4.

[4] = Oral 100 mg/kg in diet-induced obese mice vs pair-fed and control animals (FIG. 3); type: in vivo
Protocol: In this experiment, compound 4 was administered orally at 100 mg/kg, in 35 μl DMSO to diet-induced obese mice, 5 animals per group.

human FAS = human FAS (Homo sapiens, UniProt P49327); assay: FAS inhibition assay (standard and slow-binding); type: biochemical
Protocol: as §1

[5] = system: MCF7 human breast cancer cells; assay: Fatty acid oxidation: oxidation of [14C]palmitate to acid soluble products; type: cell-based
Text: By “FAO-stimulator,” we mean a compound which stimulates FAO as measured by oxidation of [^14C]palmitate to acid soluble products in MCF7 human breast cancer cells as described by Watkins, et al., “Peroxisomal fatty acid beta-oxidation in HepG2 cells,” Arch Biochem Biophys, 289: 329-336 (1991). A compound whose Vmax is at least 125% of vehicle control is defined as an FAO stimulator.

CPT-1 = CPT-1 activity in digitonin permeabilized cells; type: cell-based
[6] = system: carnitine palmitoyltransferase-1 (CPT-1); settings: Thupari et al.; cited from earlier work
[7] = C75 administration, separate studies; cited from earlier work
[8] = portal vein infusion, 18 h chow deprived rats; cited from earlier work
[9] = single ip dose of 60 mg/kg, within 24 hours, lean female Balb/C mice
[10] = slow binder requires preincubation at 37° C. prior to FAS assay, read-out: FAS Inhibition IC50
[11] = concentration that yields a 50% increase in fatty acid oxidation over controls, linear regression analysis, read-out: FAO SC150

Chain of human FAS (P49327 whole entry): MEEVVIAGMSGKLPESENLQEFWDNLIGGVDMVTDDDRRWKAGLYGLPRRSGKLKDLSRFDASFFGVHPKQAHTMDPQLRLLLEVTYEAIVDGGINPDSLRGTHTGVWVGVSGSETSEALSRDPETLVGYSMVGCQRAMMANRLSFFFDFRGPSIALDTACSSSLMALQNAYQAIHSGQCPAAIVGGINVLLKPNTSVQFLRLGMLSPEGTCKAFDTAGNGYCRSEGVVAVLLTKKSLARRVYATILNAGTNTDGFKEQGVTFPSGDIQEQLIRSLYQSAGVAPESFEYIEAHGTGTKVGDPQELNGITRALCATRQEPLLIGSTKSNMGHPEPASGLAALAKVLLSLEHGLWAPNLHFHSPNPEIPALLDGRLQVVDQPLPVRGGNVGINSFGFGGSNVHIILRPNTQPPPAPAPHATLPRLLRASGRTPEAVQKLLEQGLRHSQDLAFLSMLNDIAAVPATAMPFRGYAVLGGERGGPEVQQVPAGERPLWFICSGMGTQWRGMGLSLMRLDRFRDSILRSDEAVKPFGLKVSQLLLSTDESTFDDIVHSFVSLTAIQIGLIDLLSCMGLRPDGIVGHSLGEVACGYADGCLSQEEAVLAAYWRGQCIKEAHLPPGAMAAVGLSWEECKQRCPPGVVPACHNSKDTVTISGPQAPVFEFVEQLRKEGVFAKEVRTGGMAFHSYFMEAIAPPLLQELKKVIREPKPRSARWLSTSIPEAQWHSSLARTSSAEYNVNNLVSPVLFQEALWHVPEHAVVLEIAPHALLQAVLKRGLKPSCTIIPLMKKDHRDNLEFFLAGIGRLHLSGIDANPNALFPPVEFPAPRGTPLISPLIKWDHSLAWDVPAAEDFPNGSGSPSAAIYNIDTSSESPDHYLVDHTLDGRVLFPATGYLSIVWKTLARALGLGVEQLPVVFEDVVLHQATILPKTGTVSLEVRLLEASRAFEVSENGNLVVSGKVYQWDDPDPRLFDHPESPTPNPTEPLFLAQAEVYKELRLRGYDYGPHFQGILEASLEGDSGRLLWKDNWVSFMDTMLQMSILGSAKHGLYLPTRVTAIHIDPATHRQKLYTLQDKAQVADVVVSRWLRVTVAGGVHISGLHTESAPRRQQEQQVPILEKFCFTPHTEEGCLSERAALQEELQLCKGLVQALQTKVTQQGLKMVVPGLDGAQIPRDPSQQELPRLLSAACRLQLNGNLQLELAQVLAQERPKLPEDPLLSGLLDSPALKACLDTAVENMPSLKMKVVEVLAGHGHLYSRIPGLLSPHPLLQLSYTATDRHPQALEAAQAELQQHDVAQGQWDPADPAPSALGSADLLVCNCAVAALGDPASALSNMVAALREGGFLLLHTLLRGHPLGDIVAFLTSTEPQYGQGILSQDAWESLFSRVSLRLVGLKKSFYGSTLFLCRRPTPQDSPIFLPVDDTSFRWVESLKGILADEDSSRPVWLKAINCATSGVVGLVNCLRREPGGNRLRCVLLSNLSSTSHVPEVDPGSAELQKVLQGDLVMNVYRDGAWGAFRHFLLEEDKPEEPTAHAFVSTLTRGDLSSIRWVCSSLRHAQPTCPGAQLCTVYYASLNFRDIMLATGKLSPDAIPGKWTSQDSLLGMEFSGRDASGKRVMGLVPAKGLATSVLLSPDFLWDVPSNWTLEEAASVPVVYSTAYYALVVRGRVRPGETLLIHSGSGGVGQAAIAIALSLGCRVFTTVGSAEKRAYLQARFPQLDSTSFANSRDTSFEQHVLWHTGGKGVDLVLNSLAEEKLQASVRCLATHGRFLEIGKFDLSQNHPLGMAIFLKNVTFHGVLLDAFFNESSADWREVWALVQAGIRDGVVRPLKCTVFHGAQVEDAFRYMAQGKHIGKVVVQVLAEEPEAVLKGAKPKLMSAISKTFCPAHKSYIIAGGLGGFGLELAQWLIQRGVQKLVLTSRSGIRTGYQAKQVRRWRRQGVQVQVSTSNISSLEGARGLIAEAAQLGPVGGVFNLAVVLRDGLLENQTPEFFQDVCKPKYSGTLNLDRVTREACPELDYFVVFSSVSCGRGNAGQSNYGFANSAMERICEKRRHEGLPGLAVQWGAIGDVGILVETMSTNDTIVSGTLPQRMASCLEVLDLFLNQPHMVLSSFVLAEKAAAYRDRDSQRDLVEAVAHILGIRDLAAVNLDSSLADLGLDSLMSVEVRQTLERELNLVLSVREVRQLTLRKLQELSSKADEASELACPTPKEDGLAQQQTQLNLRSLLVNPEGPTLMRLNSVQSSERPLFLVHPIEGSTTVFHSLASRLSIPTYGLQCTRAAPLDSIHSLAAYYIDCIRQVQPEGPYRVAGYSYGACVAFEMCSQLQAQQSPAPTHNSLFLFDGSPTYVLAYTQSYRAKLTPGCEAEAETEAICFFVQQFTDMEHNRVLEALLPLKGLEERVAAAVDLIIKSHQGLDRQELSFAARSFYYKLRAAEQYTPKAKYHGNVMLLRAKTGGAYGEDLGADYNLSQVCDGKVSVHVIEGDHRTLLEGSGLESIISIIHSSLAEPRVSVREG

SMILES: C=CCCC(=O)O [Compound 4-PA, 4-pentanoic acid]
weight or carcass composition ([1]; after 2 weeks of central FAO inhibition, rats): no significant changes in weight or carcass composition | reduction of FAO in the VLH ([1]; infusion for 14 days into the VLH of rats): 37%

SMILES: O=C(O)CS [mercaptoacetate]
feeding [2]: Increased feeding

SMILES: C[N+](C)(C)C[C@H](O)CC(=O)[O-] [L-carnitine]
food intake or animal weight ([1]; infusion into the VLH of rats): did not affect food intake or animal weight | increase of FAO in the VLH over control levels ([1]; infusion into the VLH of rats): 28%

SMILES: CCCCCCCCCCCCCCC1(C(=O)OC)CO1 (stereo not drawn) [methyl palmoxirate]
feeding [2]: Increased feeding

IC50 (human FAS; [10]): > 77.5 µM | IC50 (human FAS; standard and slow-binding assays, read-out: human FAS inhibition: no inhibition at concentrations up to): > 310 µM | EC50 [5, 11]: 8.4 µg/mL | EC50 ([5]; molar equivalent of 8.4 μg/ml, read-out: concentration stimulating FAO by 150% of control): 28 µM
SMILES: C=CCC1(CC=C)C(=O)S[C@](C)(CCCCCCCC)C1=O [Compound 4]
Metabolic Mechanism (indirect calorimetry): RER [3]: ↓RER p = 0.0057 | Metabolic Mechanism (indirect calorimetry): VO2 [3]: ↑VO2 | Metabolic Mechanism (indirect calorimetry): RER ([3]; listed as compound 4): reducing RER | Metabolic Mechanism (indirect calorimetry): VO2 ([3]; listed as compound 4): increased VO2 compared to pair-fed animals | % Maximum Reduction in Food Intake ([3]; lean female Balb/C mice): 68% (day 1) | % Max. Wt Loss ([3]; lean female Balb/C mice): 7.9% | reduction in food intake [3, 9]: 68% | weight loss [3, 9]: ~8% | RER vs pair-fed group (FIG. 3D) ([4]; oral 100 mg/kg): significantly reduced compared to the pair-fed group on days 1, 3, and 4 | VO2 by indirect calorimetry vs pair-fed animals (FIG. 3C) ([4]; oral 100 mg/kg): maintained their VO2 compared to pair-fed animals on the first two days following treatment with a significant increase by day 3 | food intake vs control animals (FIG. 3B) ([4]; oral 100 mg/kg): ate significantly less food than control animals on the two days following treatment | weight loss vs pair-fed animals (FIG. 3A) ([4]; oral 100 mg/kg in DMSO): lost more weight and maintained the weight loss longer than the pair-fed animals | CPT-1 Activity % (CPT-1; % of control at concentration for maximal CPT-1 activity, digitonin permeabilized cells): 150% | concentration giving CPT-1 activity 150% of control (CPT-1; molar equivalent of 20 μg/ml): ~60 µM | concentration for maximal CPT-1 activity (CPT-1; number in parenthesis, digitonin permeabilized cells): 20 µg/mL

SMILES: C=C1C(=O)O[C@@H](CCCCCCCC)[C@@H]1C(=O)O (relative stereo) [Compound C75, trans-tetrahydro-3-methylene-2-oxo-5-n-octyl-4-furancarboxylic]
CPT-1 activity [6]: stimulates carnitine palmitoyltransferase-1 (CPT-1) activity | energy expenditure [7]: increases energy expenditure | food intake [7]: reducing food intake

SMILES: CCCCCCCC(=O)O [caprylic acid]
FAO as measured by plasma β-hydroxybutyrate [8]: increased FAO | reduction of the size of the first dark phase meal [8]: 38%

IC50 (human FAS; [10]): > 110 µM | EC50 [5, 11]: 9 µg/mL
SMILES: CCCCC1OC(=O)C(=O)C1C(=O)OCC (stereo not drawn) [Compound 5]
Metabolic Mechanism (indirect calorimetry): RER [3]: ↓RER p = 0.01 | Metabolic Mechanism (indirect calorimetry): VO2 [3]: ↑VO2 | % Maximum Reduction in Food Intake ([3]; lean female Balb/C mice): 50% (day 1) | % Max. Wt Loss ([3]; lean female Balb/C mice): 12.3%
